What was measured:
Aurora kinase A = target: T1, Aurora kinase A (Homo sapiens, UniProt O14965); assay: Inhibition of aurora A kinase using 5TAMRA-GRTGRRNSICOOH as substrate by fluorescent assay
T1 sequence (O14965 whole entry): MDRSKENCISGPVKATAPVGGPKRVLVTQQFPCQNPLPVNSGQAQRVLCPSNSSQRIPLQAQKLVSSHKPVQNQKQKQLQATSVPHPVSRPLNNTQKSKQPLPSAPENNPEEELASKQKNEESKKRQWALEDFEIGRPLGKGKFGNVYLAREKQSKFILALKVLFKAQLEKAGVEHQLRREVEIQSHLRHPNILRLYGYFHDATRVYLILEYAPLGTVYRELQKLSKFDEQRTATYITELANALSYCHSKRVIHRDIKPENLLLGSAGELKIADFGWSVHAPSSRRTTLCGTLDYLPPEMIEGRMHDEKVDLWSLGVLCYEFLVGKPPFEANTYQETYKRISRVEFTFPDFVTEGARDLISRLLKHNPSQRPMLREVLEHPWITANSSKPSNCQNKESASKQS

Aurora kinase B [1] = target: T2, Aurora kinase B (Homo sapiens, UniProt Q96GD4); assay: Inhibition of aurora B kinase using 5TAMRA-GRTGRRNSICOOH as substrate by fluorescent assay
Aurora kinase B [2] = target: T2, Aurora kinase B; assay: Inhibition of aurora B kinase in human HCT116 cells assessed as inhibition of histone H3 phosphorylation incubated for 1 hr by Hoechst 33342 staining based microscopic analysis; assay type: cell-based, HCT-116
[3] = target: Vascular endothelial growth factor receptor 2 (Homo sapiens, UniProt P35968); assay: Inhibition of VEGFR2
[4] = target: Tyrosine-protein kinase Lck (Homo sapiens, UniProt P06239); assay: Inhibition of LCK
[5] = target: T3, Serine/threonine-protein kinase Chk1 (Homo sapiens, UniProt O14757); assay: Inhibition of Chk1
T3 sequence (O14757 whole entry): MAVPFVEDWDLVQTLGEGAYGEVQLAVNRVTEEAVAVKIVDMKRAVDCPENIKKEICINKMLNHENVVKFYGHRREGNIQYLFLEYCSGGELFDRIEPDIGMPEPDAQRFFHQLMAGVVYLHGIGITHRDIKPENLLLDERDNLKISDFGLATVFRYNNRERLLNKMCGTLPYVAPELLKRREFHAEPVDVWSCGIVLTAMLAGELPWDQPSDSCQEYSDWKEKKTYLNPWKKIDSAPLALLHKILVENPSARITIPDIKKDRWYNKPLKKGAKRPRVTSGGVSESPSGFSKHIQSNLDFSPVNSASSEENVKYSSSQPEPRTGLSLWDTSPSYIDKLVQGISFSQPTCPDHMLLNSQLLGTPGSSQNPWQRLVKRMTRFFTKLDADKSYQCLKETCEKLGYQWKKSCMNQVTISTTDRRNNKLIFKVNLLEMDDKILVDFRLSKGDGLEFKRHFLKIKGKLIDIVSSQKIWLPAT

[6] = target: T4, Interleukin-1 receptor-associated kinase 4 (Homo sapiens, UniProt Q9NWZ3); assay: Inhibition of IRAK4
T4 sequence (Q9NWZ3 whole entry): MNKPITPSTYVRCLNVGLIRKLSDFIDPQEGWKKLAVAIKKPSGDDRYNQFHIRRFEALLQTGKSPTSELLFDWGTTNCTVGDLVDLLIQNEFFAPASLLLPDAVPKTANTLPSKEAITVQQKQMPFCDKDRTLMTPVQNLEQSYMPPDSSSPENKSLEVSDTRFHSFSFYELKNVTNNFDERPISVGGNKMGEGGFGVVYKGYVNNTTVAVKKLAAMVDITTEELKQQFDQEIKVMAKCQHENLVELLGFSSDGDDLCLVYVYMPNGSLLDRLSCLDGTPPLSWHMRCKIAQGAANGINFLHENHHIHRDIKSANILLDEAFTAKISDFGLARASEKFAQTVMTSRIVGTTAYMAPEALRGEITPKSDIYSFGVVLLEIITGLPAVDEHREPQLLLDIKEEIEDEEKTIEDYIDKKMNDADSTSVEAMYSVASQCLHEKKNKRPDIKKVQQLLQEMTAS

[7] = target: Ribosomal protein S6 kinase alpha-3 (Homo sapiens, UniProt P51812); assay: Inhibition of RSK2
Chain of Ribosomal protein S6 kinase alpha-3 (P51812 whole entry): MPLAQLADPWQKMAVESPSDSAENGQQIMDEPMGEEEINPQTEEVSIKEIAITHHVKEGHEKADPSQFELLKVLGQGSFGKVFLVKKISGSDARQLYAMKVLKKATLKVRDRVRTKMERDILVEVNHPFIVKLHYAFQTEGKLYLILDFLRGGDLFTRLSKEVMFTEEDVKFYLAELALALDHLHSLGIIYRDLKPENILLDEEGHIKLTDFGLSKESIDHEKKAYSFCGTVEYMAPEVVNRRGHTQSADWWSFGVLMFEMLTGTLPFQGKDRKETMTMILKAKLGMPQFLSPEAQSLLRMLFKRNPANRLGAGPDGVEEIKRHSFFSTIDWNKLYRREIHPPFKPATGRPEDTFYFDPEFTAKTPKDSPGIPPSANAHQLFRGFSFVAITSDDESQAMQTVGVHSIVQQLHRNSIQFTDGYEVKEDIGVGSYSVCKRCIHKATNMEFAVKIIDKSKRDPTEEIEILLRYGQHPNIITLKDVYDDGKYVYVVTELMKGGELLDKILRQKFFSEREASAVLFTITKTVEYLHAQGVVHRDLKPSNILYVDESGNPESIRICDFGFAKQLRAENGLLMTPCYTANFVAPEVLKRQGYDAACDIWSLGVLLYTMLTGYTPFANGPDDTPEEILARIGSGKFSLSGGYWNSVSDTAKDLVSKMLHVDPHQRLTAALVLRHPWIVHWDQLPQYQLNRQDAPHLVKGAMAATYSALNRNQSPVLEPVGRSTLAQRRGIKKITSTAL

Chain of Vascular endothelial growth factor receptor 2 (P35968 whole entry): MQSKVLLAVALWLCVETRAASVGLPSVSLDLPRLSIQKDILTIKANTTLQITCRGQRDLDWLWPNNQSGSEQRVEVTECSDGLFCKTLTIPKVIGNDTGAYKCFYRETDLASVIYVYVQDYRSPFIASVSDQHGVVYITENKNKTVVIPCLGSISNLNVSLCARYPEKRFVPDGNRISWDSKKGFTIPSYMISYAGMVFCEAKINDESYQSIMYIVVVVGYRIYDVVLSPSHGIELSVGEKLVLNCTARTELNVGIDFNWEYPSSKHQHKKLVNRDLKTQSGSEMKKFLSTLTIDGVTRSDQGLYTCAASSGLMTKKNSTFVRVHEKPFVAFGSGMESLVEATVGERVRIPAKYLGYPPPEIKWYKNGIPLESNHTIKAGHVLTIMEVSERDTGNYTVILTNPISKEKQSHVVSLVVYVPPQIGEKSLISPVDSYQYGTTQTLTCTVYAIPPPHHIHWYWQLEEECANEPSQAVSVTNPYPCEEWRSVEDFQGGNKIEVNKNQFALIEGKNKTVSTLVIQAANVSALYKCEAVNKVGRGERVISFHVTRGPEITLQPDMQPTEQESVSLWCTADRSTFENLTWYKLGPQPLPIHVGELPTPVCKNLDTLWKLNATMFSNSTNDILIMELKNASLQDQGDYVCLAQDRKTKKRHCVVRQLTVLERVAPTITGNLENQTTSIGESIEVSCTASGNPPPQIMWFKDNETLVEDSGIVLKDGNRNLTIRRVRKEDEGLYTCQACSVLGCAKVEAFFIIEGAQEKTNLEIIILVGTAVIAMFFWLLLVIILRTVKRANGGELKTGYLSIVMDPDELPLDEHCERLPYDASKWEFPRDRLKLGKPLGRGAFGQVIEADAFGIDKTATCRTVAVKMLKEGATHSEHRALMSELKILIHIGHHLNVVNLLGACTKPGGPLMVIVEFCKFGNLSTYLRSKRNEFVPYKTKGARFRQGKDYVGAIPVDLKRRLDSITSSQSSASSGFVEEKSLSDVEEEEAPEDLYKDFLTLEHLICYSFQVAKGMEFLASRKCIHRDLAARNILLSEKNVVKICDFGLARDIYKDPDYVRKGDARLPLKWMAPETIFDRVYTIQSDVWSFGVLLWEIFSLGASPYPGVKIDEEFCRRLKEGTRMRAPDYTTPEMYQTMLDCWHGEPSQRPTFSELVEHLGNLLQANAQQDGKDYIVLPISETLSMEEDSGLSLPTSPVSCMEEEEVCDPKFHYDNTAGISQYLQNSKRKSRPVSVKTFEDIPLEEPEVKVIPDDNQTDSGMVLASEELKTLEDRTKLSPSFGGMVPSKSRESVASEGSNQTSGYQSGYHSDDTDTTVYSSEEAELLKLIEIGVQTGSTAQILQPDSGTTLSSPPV
T2 sequence (Q96GD4 whole entry): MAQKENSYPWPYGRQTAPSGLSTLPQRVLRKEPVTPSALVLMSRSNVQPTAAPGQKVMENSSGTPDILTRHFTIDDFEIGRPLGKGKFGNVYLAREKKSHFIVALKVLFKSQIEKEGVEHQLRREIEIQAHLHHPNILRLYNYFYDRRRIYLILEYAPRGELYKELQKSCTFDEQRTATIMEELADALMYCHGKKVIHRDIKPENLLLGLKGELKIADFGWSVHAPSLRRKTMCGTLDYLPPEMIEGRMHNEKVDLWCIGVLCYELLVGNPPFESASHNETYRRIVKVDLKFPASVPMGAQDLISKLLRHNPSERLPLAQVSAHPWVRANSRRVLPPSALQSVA
Chain of Tyrosine-protein kinase Lck (P06239 whole entry): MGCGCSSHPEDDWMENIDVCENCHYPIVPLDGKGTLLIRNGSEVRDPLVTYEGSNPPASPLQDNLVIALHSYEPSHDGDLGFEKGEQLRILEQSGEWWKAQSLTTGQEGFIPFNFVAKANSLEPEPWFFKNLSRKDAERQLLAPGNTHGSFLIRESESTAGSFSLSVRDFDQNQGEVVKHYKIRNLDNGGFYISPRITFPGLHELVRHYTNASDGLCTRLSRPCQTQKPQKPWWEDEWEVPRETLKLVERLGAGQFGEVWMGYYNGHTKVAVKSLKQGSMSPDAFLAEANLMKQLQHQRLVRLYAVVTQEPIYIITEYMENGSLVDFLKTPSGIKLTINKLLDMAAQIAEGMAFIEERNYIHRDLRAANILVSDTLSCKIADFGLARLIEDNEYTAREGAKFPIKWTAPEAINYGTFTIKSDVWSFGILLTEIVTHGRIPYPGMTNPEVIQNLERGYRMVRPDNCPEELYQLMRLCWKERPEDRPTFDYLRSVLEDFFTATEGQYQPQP

| IC50 (Aurora kinase A) [µM] | IC50 (Aurora kinase B [1]) [µM] | EC50 (Aurora kinase B [2]) [µM] | IC50 [3] [µM] | IC50 [4] [µM] | IC50 [5] [µM] | IC50 [6] [µM] | IC50 [7] [µM] | SMILES |
| --- | --- | --- | --- | --- | --- | --- | --- | --- |
| 0.034 | 0.051 | 0.327 | – | – | – | – | – | Cc1cn2c(-c3cnn(CC(=O)Nc4ccccc4)c3)cnc2c(Nc2cc(CN3CCCC(C)C3)ns2)n1 (stereo unspecified) |
| 0.018 | ≤ 0.013 | 0.534 | – | – | – | – | – | Cc1cn2c(-c3cnn(Cc4nc5ccccc5[nH]4)c3)cnc2c(Nc2cc(CN3CCCC(C)C3)ns2)n1 (stereo unspecified) |
| 0.434 | 0.439 | – | – | – | – | – | – | Cc1cn2c(-c3cnn(CC(=O)NCc4cccnc4)c3)cnc2c(Nc2cc(CN3CCCC(C)C3)ns2)n1 (stereo unspecified) |
| 0.057 | 0.041 | 0.442 | – | – | – | – | – | COc1cccc(CNC(=O)Cn2cc(-c3cnc4c(Nc5cc(CN6CCCC(C)C6)ns5)nc(C)cn34)cn2)c1 (stereo unspecified) |
| 0.1 | ≤ 0.013 | > 1 | – | – | – | – | – | Cc1cn2c(-c3cnn(CC(=O)Nc4nccs4)c3)cnc2c(Nc2cc(CN3CCCC(C)C3)ns2)n1 (stereo unspecified) |
| 1.57 | 0.028 | > 1 | – | – | – | – | – | Cc1cn2c(-c3cnn(CC(N)=O)c3)cnc2c(Nc2cc(CN3CCCCC3)ns2)n1 |
| 0.239 | 0.282 | – | – | – | – | – | – | Cc1cn2c(-c3cnn(CC(=O)Nc4ccncc4O)c3)cnc2c(Nc2cc(CN3CCCC(C)C3)ns2)n1 (stereo unspecified) |
| 0.859 | 0.155 | – | – | – | – | – | – | Cc1cn2c(-c3cnn(CC(=O)NCc4cccc(N(C)C)c4)c3)cnc2c(Nc2cc(CN3CCCC(C)C3)ns2)n1 (stereo unspecified) |
| 1.83 | 0.363 | – | – | – | – | – | – | Cc1cn2c(-c3cnn(CC(=O)O)c3)cnc2c(Nc2cc(CN3CCCCC3)ns2)n1 |
| 0.068 | 0.091 | 0.402 | – | – | – | – | – | Cc1cn2c(-c3cnn(CC(=O)Nc4cc[n+]([O-])cc4)c3)cnc2c(Nc2cc(CN3CCCC(C)C3)ns2)n1 (stereo unspecified) |
| 0.044 | ≤ 0.013 | 0.469 | – | – | – | – | – | Cc1cn2c(-c3cnn(CC(=O)NCc4ccccc4F)c3)cnc2c(Nc2cc(CN3CCCCC3)ns2)n1 |
| 1.22 | 0.094 | 2.38 | – | – | – | – | – | Cc1cn2c(-c3cnn(CC(=O)Nc4cc(F)cc(F)c4)c3)cnc2c(Nc2cc(CN3CCCCC3)ns2)n1 |
| ≤ 0.004 | ≤ 0.013 | > 1 | – | – | – | – | – | Cc1cn2c(-c3cnn(Cc4noc(-c5ccccc5)n4)c3)cnc2c(Nc2cc(CN3CCCCC3)ns2)n1 |
| 1.93 | 0.161 | – | – | – | – | – | – | COc1ccc(CNC(=O)Cn2cc(-c3cnc4c(Nc5cc(CN6CCCC(C)C6)ns5)nc(C)cn34)cn2)cc1 (stereo unspecified) |
| 0.027 | ≤ 0.013 | 0.193 | 0.234 | 0.579 | 0.3 | 0.873 | 7.7 | Cc1cn2c(-c3cnn(CC(=O)NCc4cccs4)c3)cnc2c(Nc2cc(CN3CCCC(C)C3)ns2)n1 (stereo unspecified) |
| 1.8 | 0.044 | > 1 | – | – | – | – | – | Cc1cn2c(-c3cnn(CC(=O)NCCC(C)C)c3)cnc2c(Nc2cc(CN3CCCCC3)ns2)n1 |
| 0.045 | ≤ 0.013 | 0.87 | – | – | – | – | – | Cc1cn2c(-c3cnn(CC(=O)NCc4cccc(F)c4F)c3)cnc2c(Nc2cc(CN3CCCCC3)ns2)n1 |
| 0.198 | 0.035 | 0.388 | – | – | – | – | – | Cc1cn2c(-c3cnn(CC(=O)Nc4ccccc4F)c3)cnc2c(Nc2cc(CN3CCCCC3)ns2)n1 |
| 0.04 | ≤ 0.013 | 0.416 | – | – | – | – | – | Cc1cn2c(-c3cnn(CC(=O)NCc4ccc(F)cc4)c3)cnc2c(Nc2cc(CN3CCCCC3)ns2)n1 |
| 0.185 | 0.032 | 0.285 | – | – | – | – | – | Cc1cn2c(-c3cnn(CC(=O)Nc4ccccn4)c3)cnc2c(Nc2cc(CN3CCCC(C)C3)ns2)n1 (stereo unspecified) |
| > 3 | 0.761 | – | – | – | – | – | – | Cc1cn2c(-c3cnn(CC(=O)NCCN(C)C)c3)cnc2c(Nc2cc(CN3CCCC(C)C3)ns2)n1 (stereo unspecified) |
| 0.012 | ≤ 0.013 | 0.083 | 0.108 | 0.731 | 0.1 | 1.14 | 1.1 | Cc1cn2c(-c3cnn(CC(=O)Nc4ccncc4)c3)cnc2c(Nc2cc(CN3CCCC(C)C3)ns2)n1 (stereo unspecified) |

| IC50 (Aurora kinase A) [µM] | IC50 (Aurora kinase B [1]) [µM] | EC50 (Aurora kinase B [2]) [µM] | IC50 [3] [µM] | IC50 [4] [µM] | IC50 [5] [µM] | IC50 [6] [µM] | IC50 [7] [µM] | SMILES |
| --- | --- | --- | --- | --- | --- | --- | --- | --- |
| 2.45 | 1.11 | – | – | – | – | – | – | Cc1cn2c(-c3cnn(CC(=O)NCc4ccncc4)c3)cnc2c(Nc2cc(CN3CCCC(C)C3)ns2)n1 (stereo unspecified) |
| 0.03 | ≤ 0.013 | 0.234 | – | – | – | – | – | Cc1cn2c(-c3cnn(CC(=O)NCc4cccc(F)c4)c3)cnc2c(Nc2cc(CN3CCCCC3)ns2)n1 |
| < 0.004 | ≤ 0.013 | 0.062 | 0.253 | 0.271 | 0.3 | 1.22 | 6.8 | Cc1cn2c(-c3cnn(CC(=O)Nc4ccncc4F)c3)cnc2c(Nc2cc(CN3CCCC(C)C3)ns2)n1 (stereo unspecified) |
| 0.34 | ≤ 0.013 | 0.892 | – | – | – | – | – | Cc1cn2c(-c3cnn(CC(=O)Nc4cccc(F)c4)c3)cnc2c(Nc2cc(CN3CCCCC3)ns2)n1 |
| > 3 | 0.175 | – | – | – | – | – | – | Cc1cn2c(-c3cnn(CC(=O)NCc4ccc(C(F)(F)F)cc4)c3)cnc2c(Nc2cc(CN3CCCC(C)C3)ns2)n1 (stereo unspecified) |
| > 3 | > 3 | – | – | – | – | – | – | Cc1cn2c(-c3cnn(CC(=O)N(C)C)c3)cnc2c(Nc2cc(CN3CCCCC3)ns2)n1 |
| 0.021 | ≤ 0.013 | 0.129 | – | – | – | – | – | Cc1cn2c(-c3cnn(CC(=O)NCc4ccccc4)c3)cnc2c(Nc2cc(CN3CCCC(C)C3)ns2)n1 (stereo unspecified) |
| 1.63 | 0.261 | – | – | – | – | – | – | Cc1cn2c(-c3cnn(CC(=O)N(C)Cc4ccccc4)c3)cnc2c(Nc2cc(CN3CCCC(C)C3)ns2)n1 (stereo unspecified) |
| 0.053 | 0.03 | 0.412 | – | – | – | – | – | Cc1cn2c(-c3cnn(CC(=O)Nc4ccc(F)cc4)c3)cnc2c(Nc2cc(CN3CCCCC3)ns2)n1 |
| 0.836 | 0.146 | – | – | – | – | – | – | Cc1cn2c(-c3cnn(CC(=O)O)c3)cnc2c(Nc2cc(CN3CCCC(C)C3)ns2)n1 (stereo unspecified) |
| 0.638 | 0.045 | 0.951 | – | – | – | – | – | Cc1cn2c(-c3cnn(CC(=O)Nc4cccnn4)c3)cnc2c(Nc2cc(CN3CCCC(C)C3)ns2)n1 (stereo unspecified) |
| 0.102 | 0.028 | 0.164 | – | – | – | – | – | Cc1cn2c(-c3cnn(CC(=O)Nc4cccc(F)n4)c3)cnc2c(Nc2cc(CN3CCCC(C)C3)ns2)n1 (stereo unspecified) |
| 0.213 | 0.07 | – | – | – | – | – | – | Cc1cn2c(-c3cnn(CC(=O)NCc4ccco4)c3)cnc2c(Nc2cc(CN3CCCC(C)C3)ns2)n1 (stereo unspecified) |
| ≤ 0.004 | ≤ 0.013 | > 1 | – | – | – | – | – | Cc1cn2c(-c3cnn(Cc4nc(-c5ccccc5)no4)c3)cnc2c(Nc2cc(CN3CCCCC3)ns2)n1 |
| > 3 | 0.193 | – | – | – | – | – | – | CNC(=O)Cn1cc(-c2cnc3c(Nc4cc(CN5CCCCC5)ns4)nc(C)cn23)cn1 |
| > 3 | > 3 | – | – | – | – | – | – | Cc1cn2c(-c3cnn(CC(=O)N4CCOCC4)c3)cnc2c(Nc2cc(CN3CCCCC3)ns2)n1 |
| 0.583 | 0.021 | 0.887 | – | – | – | – | – | Cc1cn2c(-c3cnn(Cc4nc(-c5ccccc5)c[nH]4)c3)cnc2c(Nc2cc(CN3CCCCC3)ns2)n1 |
| 0.413 | 0.035 | > 1 | – | – | – | – | – | Cc1cn2c(-c3cnn(CC(=O)NCc4cccc(C(F)(F)F)c4)c3)cnc2c(Nc2cc(CN3CCCC(C)C3)ns2)n1 (stereo unspecified) |
| 0.186 | 0.118 | – | – | – | – | – | – | Cc1cn2c(-c3cnn(CC(=O)Nc4cccnc4)c3)cnc2c(Nc2cc(CN3CCCC(C)C3)ns2)n1 (stereo unspecified) |
| 0.022 | ≤ 0.013 | 0.389 | – | – | – | – | – | Cc1cn2c(-c3cnn(CC(=O)NCc4cc(F)cc(F)c4)c3)cnc2c(Nc2cc(CN3CCCCC3)ns2)n1 |
| 0.168 | 0.178 | – | – | – | – | – | – | Cc1cn2c(-c3cnn(CC(=O)NCc4ncco4)c3)cnc2c(Nc2cc(CN3CCCC(C)C3)ns2)n1 (stereo unspecified) |
| 0.753 | 0.081 | 0.11 | – | – | – | – | – | Cc1cn2c(-c3cnn(CC(=O)Nc4cccnc4F)c3)cnc2c(Nc2cc(CN3CCCC(C)C3)ns2)n1 (stereo unspecified) |
